# In PMC10046369, “Low-Affinity/High-Selectivity Dopamine Transport Inhibition Sufficient to Rescue Cognitive Functions in the Aging Rat” (Biomolecules, 2023):
# Legend:
# Test in all cases: biochemical
# Design in all cases: KINOMEscan competition binding panel, per cent of control
# Settings in all cases: read-out: %Ctrl @ 2800nM
# DCAMKL3 = molecular target: T1, DCAMKL3 (Homo sapiens, UniProt Q9C098)
# T1 construct: gene DCLK3
# Summary of the method: (§1)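 Competition binding panel (KINOMEscan) across 450 human kinases and disease-relevant mutants, run to the contractor's standard protocol. Values are % control: (test signal − positive control signal)/(negative control signal − positive control signal) × 100, with lower values indicating stronger binding.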
# AMPK-alpha1 = molecular target: T2, AMPK-alpha1 (Homo sapiens, UniProt Q13131)
# T2 construct: gene PRKAA1
# Summary of the method: as §1
# PRKD2 = PRKD2 (Homo sapiens, UniProt Q9BZL6)
# Summary of the method: as §1
# ERBB3 = ERBB3 (Homo sapiens, UniProt P21860)
# Summary of the method: as §1
# CSNK1A1 = CSNK1A1 (Homo sapiens, UniProt P48729)
# Summary of the method: as §1
# SRC = SRC (Homo sapiens, UniProt P12931)
# Summary of the method: as §1
# ICK = molecular target: T3, ICK (Homo sapiens, UniProt Q9UPZ9)
# T3 construct: gene CILK1
# Summary of the method: as §1
# [1] = molecular target: T4, RSK4(Kin.Dom.2-C-terminal) (Homo sapiens, UniProt Q9UK32)
# T4 construct: gene RPS6KA6; Kin.Dom.2-C-terminal
# Summary of the method: as §1
# PLK4 = PLK4 (Homo sapiens, UniProt O00444)
# Summary of the method: as §1
# HASPIN = HASPIN (Homo sapiens, UniProt Q8TF76)
# Summary of the method: as §1
# IRAK4 = IRAK4 (Homo sapiens, UniProt Q9NWZ3)
# Summary of the method: as §1
# MST1 = molecular target: T5, MST1 (Homo sapiens, UniProt Q13043)
# T5 construct: gene STK4
# Summary of the method: as §1
# CAMK2G = CAMK2G (Homo sapiens, UniProt Q13555)
# Summary of the method: as §1
# PIK3C2B = PIK3C2B (Homo sapiens, UniProt O00750)
# Summary of the method: as §1
# CTK = molecular target: T6, CTK (Homo sapiens, UniProt P42679)
# T6 construct: gene MATK
# Summary of the method: as §1
# SRPK3 = SRPK3 (Homo sapiens, UniProt Q9UPE1)
# Summary of the method: as §1
# [2] = molecular target: EGFR(L747-S752del, P753S) (Homo sapiens, UniProt P00533, DEL747-752/P753S)
# Summary of the method: as §1
# PDGFRB = PDGFRB (Homo sapiens, UniProt P09619)
# Summary of the method: as §1
# FYN = FYN (Homo sapiens, UniProt P06241)
# Summary of the method: as §1
# RIPK4 = RIPK4 (Homo sapiens, UniProt P57078)
# Summary of the method: as §1
# PYK2 = molecular target: T7, PYK2 (Homo sapiens, UniProt Q14289)
# T7 construct: gene PTK2B
# Summary of the method: as §1
# CDC2L1 = molecular target: T8, CDC2L1 (Homo sapiens, UniProt P21127)
# T8 construct: gene CDK11B
# Summary of the method: as §1
# ASK2 = molecular target: T9, ASK2 (Homo sapiens, UniProt O95382)
# T9 construct: gene MAP3K6
# Summary of the method: as §1
# MEK2 = molecular target: T10, MEK2 (Homo sapiens, UniProt P36507)
# T10 construct: gene MAP2K2
# Summary of the method: as §1
# PAK1 = PAK1 (Homo sapiens, UniProt Q13153)
# Summary of the method: as §1
# IGF1R = IGF1R (Homo sapiens, UniProt P08069)
# Summary of the method: as §1
# Chain of IGF1R (P08069 whole entry): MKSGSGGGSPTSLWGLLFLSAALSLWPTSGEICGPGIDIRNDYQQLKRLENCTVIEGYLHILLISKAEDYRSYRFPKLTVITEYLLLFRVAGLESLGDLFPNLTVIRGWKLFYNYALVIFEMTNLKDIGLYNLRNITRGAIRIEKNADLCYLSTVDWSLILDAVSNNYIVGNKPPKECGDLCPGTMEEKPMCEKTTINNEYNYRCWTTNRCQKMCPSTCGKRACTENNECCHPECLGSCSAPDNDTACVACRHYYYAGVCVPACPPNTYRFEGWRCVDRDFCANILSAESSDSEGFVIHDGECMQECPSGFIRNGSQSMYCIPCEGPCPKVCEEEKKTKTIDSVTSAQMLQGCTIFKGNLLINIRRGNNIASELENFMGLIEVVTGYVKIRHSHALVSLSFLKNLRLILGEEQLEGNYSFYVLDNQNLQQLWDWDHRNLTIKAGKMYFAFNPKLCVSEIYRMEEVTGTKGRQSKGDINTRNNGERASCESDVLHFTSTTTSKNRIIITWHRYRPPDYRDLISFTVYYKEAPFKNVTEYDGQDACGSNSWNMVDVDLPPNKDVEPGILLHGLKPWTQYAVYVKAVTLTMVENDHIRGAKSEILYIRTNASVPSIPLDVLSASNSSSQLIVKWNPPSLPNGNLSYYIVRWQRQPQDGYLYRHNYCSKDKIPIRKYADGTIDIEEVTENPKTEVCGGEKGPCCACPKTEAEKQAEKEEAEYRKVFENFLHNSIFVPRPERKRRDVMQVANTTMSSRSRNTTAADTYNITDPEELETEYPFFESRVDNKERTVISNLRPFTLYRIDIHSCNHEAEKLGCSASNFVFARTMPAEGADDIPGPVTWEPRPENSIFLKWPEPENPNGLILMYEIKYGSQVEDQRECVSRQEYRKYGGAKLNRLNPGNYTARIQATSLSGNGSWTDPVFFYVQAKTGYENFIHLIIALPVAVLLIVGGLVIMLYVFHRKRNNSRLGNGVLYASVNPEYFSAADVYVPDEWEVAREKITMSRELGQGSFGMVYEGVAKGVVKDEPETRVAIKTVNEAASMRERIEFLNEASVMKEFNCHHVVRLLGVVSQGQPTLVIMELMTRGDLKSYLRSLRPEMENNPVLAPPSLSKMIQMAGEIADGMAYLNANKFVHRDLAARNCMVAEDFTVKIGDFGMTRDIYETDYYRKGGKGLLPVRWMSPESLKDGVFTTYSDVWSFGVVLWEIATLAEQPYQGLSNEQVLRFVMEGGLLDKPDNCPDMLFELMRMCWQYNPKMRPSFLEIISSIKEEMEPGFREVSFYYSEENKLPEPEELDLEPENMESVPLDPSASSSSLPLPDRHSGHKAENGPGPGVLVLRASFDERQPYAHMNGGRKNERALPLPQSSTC
# Chain of PDGFRB (P09619 whole entry): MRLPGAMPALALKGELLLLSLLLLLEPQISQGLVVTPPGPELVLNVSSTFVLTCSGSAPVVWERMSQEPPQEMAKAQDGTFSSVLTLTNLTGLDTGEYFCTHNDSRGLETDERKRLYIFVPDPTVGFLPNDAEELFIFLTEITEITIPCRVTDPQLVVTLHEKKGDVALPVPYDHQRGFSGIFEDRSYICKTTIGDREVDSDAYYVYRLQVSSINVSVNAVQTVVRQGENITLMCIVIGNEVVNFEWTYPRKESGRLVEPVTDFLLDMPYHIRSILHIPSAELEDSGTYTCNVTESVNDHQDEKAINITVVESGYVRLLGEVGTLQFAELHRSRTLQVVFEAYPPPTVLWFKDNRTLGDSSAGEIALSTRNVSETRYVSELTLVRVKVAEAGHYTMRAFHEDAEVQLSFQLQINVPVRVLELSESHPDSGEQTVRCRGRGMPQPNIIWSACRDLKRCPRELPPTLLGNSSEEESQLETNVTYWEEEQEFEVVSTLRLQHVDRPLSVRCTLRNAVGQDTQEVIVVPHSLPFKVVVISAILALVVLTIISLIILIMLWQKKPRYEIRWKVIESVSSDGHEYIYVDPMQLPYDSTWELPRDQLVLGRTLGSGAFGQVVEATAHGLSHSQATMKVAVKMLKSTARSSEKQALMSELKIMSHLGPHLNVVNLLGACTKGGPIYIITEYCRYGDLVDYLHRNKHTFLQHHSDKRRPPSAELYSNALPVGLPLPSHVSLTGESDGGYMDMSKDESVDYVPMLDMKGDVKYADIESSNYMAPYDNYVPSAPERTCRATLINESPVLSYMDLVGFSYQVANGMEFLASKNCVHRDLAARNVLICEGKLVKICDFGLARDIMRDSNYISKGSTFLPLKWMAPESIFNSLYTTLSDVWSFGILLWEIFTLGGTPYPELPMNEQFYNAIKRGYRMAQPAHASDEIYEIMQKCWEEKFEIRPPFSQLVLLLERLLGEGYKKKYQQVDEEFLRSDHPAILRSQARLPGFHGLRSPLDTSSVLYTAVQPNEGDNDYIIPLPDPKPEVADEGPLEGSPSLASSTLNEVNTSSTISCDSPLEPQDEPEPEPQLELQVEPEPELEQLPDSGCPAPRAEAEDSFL
# T6 sequence (P42679 whole entry): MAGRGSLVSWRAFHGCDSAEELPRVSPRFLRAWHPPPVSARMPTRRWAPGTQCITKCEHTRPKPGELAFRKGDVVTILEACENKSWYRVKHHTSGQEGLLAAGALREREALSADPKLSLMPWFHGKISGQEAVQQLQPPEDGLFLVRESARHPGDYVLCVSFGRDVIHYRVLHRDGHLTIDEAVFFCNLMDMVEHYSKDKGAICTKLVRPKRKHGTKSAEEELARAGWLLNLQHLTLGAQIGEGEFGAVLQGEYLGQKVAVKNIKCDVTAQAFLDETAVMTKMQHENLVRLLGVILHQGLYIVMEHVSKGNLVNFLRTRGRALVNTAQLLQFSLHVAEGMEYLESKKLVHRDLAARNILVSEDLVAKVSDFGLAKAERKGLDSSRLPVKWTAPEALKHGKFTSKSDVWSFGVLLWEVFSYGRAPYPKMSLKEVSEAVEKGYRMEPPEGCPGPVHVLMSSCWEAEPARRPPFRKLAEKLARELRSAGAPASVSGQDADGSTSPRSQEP
# Chain of FYN (P06241 whole entry): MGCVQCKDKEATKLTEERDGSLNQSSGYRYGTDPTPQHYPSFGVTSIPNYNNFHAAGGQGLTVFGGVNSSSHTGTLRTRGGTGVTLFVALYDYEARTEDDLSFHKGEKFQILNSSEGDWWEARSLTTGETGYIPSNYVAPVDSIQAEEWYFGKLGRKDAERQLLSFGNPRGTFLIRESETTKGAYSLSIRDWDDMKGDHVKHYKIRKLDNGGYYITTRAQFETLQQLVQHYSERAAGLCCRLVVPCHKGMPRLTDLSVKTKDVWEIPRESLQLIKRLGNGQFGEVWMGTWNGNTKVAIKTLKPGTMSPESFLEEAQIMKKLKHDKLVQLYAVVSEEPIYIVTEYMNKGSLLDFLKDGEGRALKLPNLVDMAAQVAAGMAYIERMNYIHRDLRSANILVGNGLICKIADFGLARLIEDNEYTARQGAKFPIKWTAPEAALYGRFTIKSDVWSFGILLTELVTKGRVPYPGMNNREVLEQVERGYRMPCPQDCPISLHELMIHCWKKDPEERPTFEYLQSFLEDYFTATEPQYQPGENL
# T1 sequence (Q9C098 whole entry): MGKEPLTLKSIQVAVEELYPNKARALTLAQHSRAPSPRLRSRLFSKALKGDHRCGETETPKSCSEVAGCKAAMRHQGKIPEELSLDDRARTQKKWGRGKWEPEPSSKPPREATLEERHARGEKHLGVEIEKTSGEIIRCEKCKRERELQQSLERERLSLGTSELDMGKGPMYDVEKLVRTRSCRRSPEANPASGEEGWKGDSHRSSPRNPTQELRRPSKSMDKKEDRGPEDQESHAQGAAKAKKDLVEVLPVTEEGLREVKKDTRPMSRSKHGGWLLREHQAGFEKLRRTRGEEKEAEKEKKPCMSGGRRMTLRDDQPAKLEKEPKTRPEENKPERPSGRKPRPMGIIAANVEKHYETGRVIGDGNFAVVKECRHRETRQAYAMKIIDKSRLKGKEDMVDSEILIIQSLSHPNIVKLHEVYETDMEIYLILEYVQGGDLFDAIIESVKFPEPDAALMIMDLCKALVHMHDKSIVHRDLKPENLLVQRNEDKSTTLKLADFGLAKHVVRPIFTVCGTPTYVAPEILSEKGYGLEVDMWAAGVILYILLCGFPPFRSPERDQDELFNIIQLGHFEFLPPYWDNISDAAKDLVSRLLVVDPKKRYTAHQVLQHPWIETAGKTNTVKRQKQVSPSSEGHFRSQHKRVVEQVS
# T8 sequence (P21127 whole entry): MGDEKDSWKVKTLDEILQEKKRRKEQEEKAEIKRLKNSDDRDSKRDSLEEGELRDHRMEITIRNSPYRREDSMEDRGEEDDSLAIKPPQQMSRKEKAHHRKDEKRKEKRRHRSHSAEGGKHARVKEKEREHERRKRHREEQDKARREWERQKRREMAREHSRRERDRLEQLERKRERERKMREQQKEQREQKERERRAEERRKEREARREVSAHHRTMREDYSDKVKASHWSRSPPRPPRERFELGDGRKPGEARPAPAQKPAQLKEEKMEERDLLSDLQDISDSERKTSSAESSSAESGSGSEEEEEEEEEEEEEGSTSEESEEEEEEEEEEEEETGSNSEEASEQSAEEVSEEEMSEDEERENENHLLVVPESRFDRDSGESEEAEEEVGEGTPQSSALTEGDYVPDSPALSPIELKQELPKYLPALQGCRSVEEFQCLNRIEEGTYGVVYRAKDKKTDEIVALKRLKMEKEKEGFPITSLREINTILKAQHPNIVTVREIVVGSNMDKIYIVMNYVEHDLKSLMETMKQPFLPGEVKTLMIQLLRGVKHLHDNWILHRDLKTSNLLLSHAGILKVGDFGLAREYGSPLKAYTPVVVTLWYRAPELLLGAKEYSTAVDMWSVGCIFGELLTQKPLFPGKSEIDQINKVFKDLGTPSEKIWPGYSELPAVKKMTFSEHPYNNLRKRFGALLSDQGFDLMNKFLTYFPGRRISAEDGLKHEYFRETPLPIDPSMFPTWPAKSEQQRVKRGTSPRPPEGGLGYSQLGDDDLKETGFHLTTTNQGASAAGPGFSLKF
smiles,measurement,setting,value
"[O-][S@@+](Cc1cncs1)C(c1ccccc1)c1ccccc1 [S-CE-123, (S)-5-((Benzhydrylsulfinyl)Methyl)Thiazole]",remaining binding at 2.8 µM,DCAMKL3,96%
same,remaining binding at 2.8 µM,AMPK-alpha1,92%
same,remaining binding at 2.8 µM,PRKD2,98%
same,remaining binding at 2.8 µM,ERBB3,89%
same,remaining binding at 2.8 µM,CSNK1A1,74%
same,remaining binding at 2.8 µM,SRC,100%
same,remaining binding at 2.8 µM,ICK,91%
same,remaining binding at 2.8 µM,[1],94%
same,remaining binding at 2.8 µM,PLK4,89%
same,remaining binding at 2.8 µM,HASPIN,95%
same,remaining binding at 2.8 µM,IRAK4,94%
same,remaining binding at 2.8 µM,MST1,97%
same,remaining binding at 2.8 µM,CAMK2G,95%
same,remaining binding at 2.8 µM,PIK3C2B,98%
same,remaining binding at 2.8 µM,CTK,51%
same,remaining binding at 2.8 µM,SRPK3,76%
same,remaining binding at 2.8 µM,[2],96%
same,remaining binding at 2.8 µM,PDGFRB,99%
same,remaining binding at 2.8 µM,FYN,93%
same,remaining binding at 2.8 µM,RIPK4,97%
same,remaining binding at 2.8 µM,PYK2,100%
same,remaining binding at 2.8 µM,CDC2L1,95%
same,remaining binding at 2.8 µM,ASK2,100%
same,remaining binding at 2.8 µM,MEK2,93%
same,remaining binding at 2.8 µM,PAK1,92%
same,remaining binding at 2.8 µM,IGF1R,94%
